# Results from patent publication US9840494B2, “Quinazoline derivative” (Tianjin Hemay Oncology Pharmaceutical Co., Ltd., priority 2013, dated 2017).
# Marks after values point to notes of the source that are not given here.
# Legend:
# [1] = system: HCC827 human non-small cell lung cancer xenograft; assay: HCC827 human non-small cell lung cancer xenograft model; format: in vivo, nude mice; conditions: for Tumor Weight (x ± S.D.) / Tumor Inhibitor Rate / Relative Tumor Volume (x ± S.D.) / T/C / Tumor Volume (x ± S.D.): HCC827 xenograft; for Tumor Inhibitor Rate: by tumor weight; for Relative Tumor Volume (x ± S.D.) / T/C / Tumor Volume (x ± S.D.): end of the assay
# Procedure: (§1) Tumor cells were cultured in an incubator at 37° C. with 5% CO2 using MEM medium containing 10% inactivated fetal calf serum, 100 U/ml penicillin and 100 μg/ml streptomycin. The tumor cells in logarithmic growth phase were collected, adjusted to an appropriate density and injected subcutaneously into nude mice (0.2 ml per mouse). An xenograft model was established after a tumor was formed in the nude mice and passaged in vivo for more than three generations.
# (§2) The above-mentioned tumor-bearing mice were sacrificed by cervical dislocation. The tumor was taken out and cut into small tumor pieces (about 2 mm×2 mm×2 mm) under sterile conditions. The small tumor pieces were inoculated subcutaneously into nude mice on the right shoulder blade with a trocar. […] The animals in each group were subjected to intragastric administration daily for 14 consecutive days. The day of grouping is assigned as day 0.
# (§3) Tumor volume is calculated as: volume=0.5×long diameter×short diameter^2. The relative tumor volume (RTV) was calculated based on the measurements as: RTV=Vt/V0, wherein V0 is the tumor volume measured when the animals were grouped to be administrated (i.e., d0), and Vt is the tumor volume when each measurement was taken. Relative tumor proliferation rate T/C was calculated based on relative tumor volume, in which T is the mean value of the relative tumor volume of the treatment group, and C is the mean value of the relative tumor volume of the solvent control group. T/C was calculated as follows: T/C=TRTV/CRTV×100% (TRTV: RTV of the treatment group; CRTV: RTV of the solvent control group) Inhibition rate (%)=(mean tumor weight of the solvent control group−mean tumor weight of the treatment group)/mean tumor weight of the solvent control group x 100%. Percentage of body weight change=Wn/W0×100% (Wn: mean body weight of experimental animals in each group at day n, W0: mean body weight of experimental animals in each group at day 0).
# (§4) One-Way ANOVA test was conducted in SPSS13.0, performing statistical analysis between groups.
# [2] = system: FaDu human head and neck cancer xenograft; assay: FaDu human head and neck cancer xenograft model; format: in vivo, nude mice; conditions: for Tumor Weight (x ± S.D.) / Tumor Inhibitor Rate / Relative Tumor Volume (x ± S.D.) / T/C / Tumor Volume (x ± S.D.): FaDu xenograft; for Tumor Inhibitor Rate: by tumor weight; for Relative Tumor Volume (x ± S.D.) / T/C / Tumor Volume (x ± S.D.): end of the assay
# Procedure: as §1, with “after” for “after a”
# as §2
# as §3, with “group×100%.” for “group x 100%.”
# as §4
# [3] = HCC827 xenograft nude mice, 20, 40 and 80 mg/kg intragastric daily for 14 days
# [4] = 20 mg/kg intragastric daily for 14 days
# [5] = 40 mg/kg intragastric daily for 14 days
# [6] = 80 mg/kg intragastric daily for 14 days
# [7] = FaDu xenograft nude mice, 20, 40 and 80 mg/kg intragastric daily for 14 days
compound,measurement,setting,value
"COCCOc1cc2ncnc(Nc3ccc(F)c(Cl)c3)c2cc1NC(=O)C=C1CCN(CCOC)CC1.CS(=O)(=O)O [Compound 3, N-[4-(3-chloro-4-fluorophenylamino)-7-(2-methoxyethoxy)quinazolin-6-yl]-2-[1-(2-methoxyethyl)piperidin-4-ylidene]acetamide dimethylsulfonate]",Body weights of the experimental animals,[1]; [3],not significantly reduced
same,abnormality in the experimental animals,[1]; [3],no significant abnormality was observed
same,Tumor Weight (x ± S.D.),[1]; [4],0.045 ± 0.074 g
same,Tumor Inhibitor Rate,[1]; [4],91.7%
same,Relative Tumor Volume (x ± S.D.),[1]; [4],0.36 ± 0.45
same,T/C,[1]; [4],5.0%
same,Tumor Volume (x ± S.D.),[1]; [4],57.3 ± 77.6*** mm^3
same,Tumor Weight (x ± S.D.),[1]; [5],0.026 ± 0.026 g
same,Tumor Inhibitor Rate,[1]; [5],95.2%
same,Relative Tumor Volume (x ± S.D.),[1]; [5],0.13 ± 0.10
same,T/C,[1]; [5],1.8%
same,Tumor Volume (x ± S.D.),[1]; [5],18.4 ± 11.6*** mm^3
same,Tumor Weight (x ± S.D.),[1]; [6],0.014 ± 0.013 g
same,Tumor Inhibitor Rate,[1]; [6],97.4%
same,Relative Tumor Volume (x ± S.D.),[1]; [6],0.13 ± 0.04
same,T/C,[1]; [6],1.8%
same,Tumor Volume (x ± S.D.),[1]; [6],20.9 ± 8.6*** mm^3
same,Body weights of the experimental animals,[2]; [7],not significantly reduced
same,abnormality in the experimental animals,[2]; [7],no significant abnormality was observed
same,Tumor Weight (x ± S.D.),[2]; [4],0.684 ± 0.192 g
same,Tumor Inhibitor Rate,[2]; [4],37.5%
same,Relative Tumor Volume (x ± S.D.),[2]; [4],6.1 ± 1.3
same,T/C,[2]; [4],61.4%
same,Tumor Volume (x ± S.D.),[2]; [4],703.3 ± 144.2** mm^3
same,Tumor Weight (x ± S.D.),[2]; [5],0.522 ± 0.427 g
same,Tumor Inhibitor Rate,[2]; [5],52.4%
same,Relative Tumor Volume (x ± S.D.),[2]; [5],5.5 ± 1.9
same,T/C,[2]; [5],54.7%
same,Tumor Volume (x ± S.D.),[2]; [5],602.9 ± 204.4*** mm^3
same,Tumor Weight (x ± S.D.),[2]; [6],0.260 ± 0.128 g
same,Tumor Inhibitor Rate,[2]; [6],76.2%
same,Relative Tumor Volume (x ± S.D.),[2]; [6],3.2 ± 1.6
same,T/C,[2]; [6],31.6%
same,Tumor Volume (x ± S.D.),[2]; [6],352.3 ± 157.0*** mm^3
